In PMC9101869, “5,2′-Dibromo-2,4′,5′-trihydroxydiphenylmethanone Inhibits LPS-Induced Vascular Inflammation by Targeting the Cav1 Protein” (Molecules, 2022):

Target: T1, Cav1 (Homo sapiens, UniProt Q03135)
T1 construct: commercial human recombinant Cav1 (Cloud-Clone Corp.); biotinylated for BLI
T1 sequence (Q03135 2-178): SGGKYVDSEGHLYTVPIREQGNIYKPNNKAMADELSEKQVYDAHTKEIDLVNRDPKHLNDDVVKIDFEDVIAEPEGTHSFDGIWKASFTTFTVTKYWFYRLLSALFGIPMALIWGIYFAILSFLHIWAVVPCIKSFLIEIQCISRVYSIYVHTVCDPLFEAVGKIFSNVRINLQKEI
Experiment: intrinsic fluorescence quenching, double logarithmic fit
Format: binding
Conditions: 298 K; Cav1 5.0 × 10^−9 mol/L; excitation 280 nm; n fitted as free exponent; read-out: Kb(L.mol^-1) (converted)
Source text: intrinsic fluorescence quenching, double logarithmic fit on Cav1

- Kd: 917 pM
Compound: O=C(c1cc(Br)ccc1O)c1cc(O)c(O)cc1Br [TDD, 5,2′-dibromo-2,4′,5′-trihydroxydiphenylmethanone]
